Experimental data published in patent EP4682146A1, “COMPOSITION INCLUDING NOVEL PYRIDOINDOLE DERIVATIVE COMPOUND AS ACTIVE INGREDIENT FOR PREVENTION OR TREATMENT OF NEURODEGENERATIVE DISEASES” (Neurotarge Co., Ltd., priority 2023, dated 2024).

These compounds were tested on TtgA / PTtgR phloretin-inducible gene expression system (assay: Phloretin-regulated EGFP expression (pTK269: PCAG-TtgA and pTK274: PTtgR-EGFP) in HEK293T). Settings: HEK293T co-transfected with pTK269 and pTK274, 0 - 50 µM phloretin, 48 hours.
Assay type: cell-based, Human
Experimental: • FIG. 1 is a fluorescence microscopy image of the HEK293T cell line transfected with EGFP-fused Tau (pTK231: P(CMV)-Tau-EGFP) and Synaptogyrin 3 (pTK233:P(CMV)-EGFP-Synaptogyrin 3), showing the expression of both proteins 48 hours after transfection. • FIG. 2a is a schematic of the Protein Complementary Assay (PCA) process using the split luciferase method. Split luciferase consists of two fragments of the luciferase enzyme: a small bit (sBit) and a large bit (Lbit). […] Therefore, by fusing each fragment of the split luciferase to Tau and Synaptogyrin3, luciferase activity may be induced as a result of the interaction between Tau and Synaptogyrin3. […] The system includes a synthetic transcriptional activator, TtgA, and a synthetic promoter, PTtgR, prepared based on the flavonoid-regulated TtgR operon of the Pseudomonas putida DOT-T1E strain. In the absence of phloretin, TtgA binds to PTtgR and activates transcription (without phloretin), while in the presence of phloretin, TtgA dissociates from DNA and transcription is not activated (with phloretin). […] In the stable cell line HEK293T-TK252 expressing Lbit-Tau and sBit-Synaptogyrin3, expression of Tau protein to which split luciferase is not fused, can lead to a decrease in luciferase signal. […]

Row | Structure (SMILES) | EGFP signal, difference between 0 and 50 µM treatment [fold]
1 | O=C(CCc1ccc(O)cc1)c1c(O)cc(O)cc1O [phloretin] | 4

Each compound was assayed on Tau-Synaptogyrin3 interaction (assay: Tau competition assay with phloretin-inducible Tau expression in HEK293T-TK252 clones, luciferase activity). Settings: clone 1E2 co-transfected with pTK269 and pTK285, 0, 10 and 50 µM phloretin, 48 hours.
Assay type: cell-based, Human
Experimental: • FIG. 1 is a fluorescence microscopy image of the HEK293T cell line transfected with EGFP-fused Tau (pTK231: P(CMV)-Tau-EGFP) and Synaptogyrin 3 (pTK233:P(CMV)-EGFP-Synaptogyrin 3), showing the expression of both proteins 48 hours after transfection. • FIG. 2a is a schematic of the Protein Complementary Assay (PCA) process using the split luciferase method. Split luciferase consists of two fragments of the luciferase enzyme: a small bit (sBit) and a large bit (Lbit). […] Therefore, by fusing each fragment of the split luciferase to Tau and Synaptogyrin3, luciferase activity may be induced as a result of the interaction between Tau and Synaptogyrin3. […] The system includes a synthetic transcriptional activator, TtgA, and a synthetic promoter, PTtgR, prepared based on the flavonoid-regulated TtgR operon of the Pseudomonas putida DOT-T1E strain. In the absence of phloretin, TtgA binds to PTtgR and activates transcription (without phloretin), while in the presence of phloretin, TtgA dissociates from DNA and transcription is not activated (with phloretin). […]
Live cell luciferase assay: Live cell luciferase activity was measured using NanoGlo® Live Cell Assay System (Cat# N2012. Promega, WI, USA), according to manufacturer's instruction. […]

Row | Structure (SMILES) | luciferase activity, difference between 0 and 50 µM treatment [fold]
2 | O=C(CCc1ccc(O)cc1)c1c(O)cc(O)cc1O [phloretin] | 2

These compounds were tested against T1, Tau-Synaptogyrin3 interaction (Homo sapiens, UniProt O43761+P10636) (assay: Cell-based split luciferase (NanoBit) protein complementary assay for Tau-Synaptogyrin3 interaction in stable cell line HEK293T-TK252-1E2). Settings: HEK293T-TK252-1E2 cells, 48 hrs compound treatment, L/F value (luciferase activity/fluorescent intensity) compared to DMSO control.
T1 construct: expressed in transfected cells
T1 sequence (P10636 1-441 isoform P10636-8): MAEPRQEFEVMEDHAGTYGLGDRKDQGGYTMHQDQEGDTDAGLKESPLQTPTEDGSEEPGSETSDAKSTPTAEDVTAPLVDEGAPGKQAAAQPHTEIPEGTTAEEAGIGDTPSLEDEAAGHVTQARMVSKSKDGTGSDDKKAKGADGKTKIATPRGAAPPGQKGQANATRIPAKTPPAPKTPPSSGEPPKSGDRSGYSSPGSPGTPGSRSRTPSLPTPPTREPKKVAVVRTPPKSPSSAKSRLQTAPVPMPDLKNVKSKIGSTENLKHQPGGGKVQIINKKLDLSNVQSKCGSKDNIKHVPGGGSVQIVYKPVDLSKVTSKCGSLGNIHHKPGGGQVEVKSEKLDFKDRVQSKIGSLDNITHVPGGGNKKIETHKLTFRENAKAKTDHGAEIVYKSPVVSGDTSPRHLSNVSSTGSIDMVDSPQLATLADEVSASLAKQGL
T1 sequence (O43761 whole entry): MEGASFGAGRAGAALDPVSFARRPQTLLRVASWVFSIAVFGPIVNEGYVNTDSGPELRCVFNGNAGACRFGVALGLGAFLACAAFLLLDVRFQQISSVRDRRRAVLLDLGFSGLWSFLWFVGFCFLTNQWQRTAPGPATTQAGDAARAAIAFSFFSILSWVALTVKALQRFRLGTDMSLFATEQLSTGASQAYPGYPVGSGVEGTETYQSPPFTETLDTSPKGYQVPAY
Experimental: Live cell luciferase assay: Live cell luciferase activity was measured using NanoGlo® Live Cell Assay System (Cat# N2012. Promega, WI, USA), according to manufacturer's instruction. All microplate-based measurement was performed with BioTek Synergy H1 (Agilent. CA, USA).
For producing HEK293T-TK252 stable cell line for screening, BglII-linearized pTK252 was transfected to HEK293T cells. After 24 hrs transfection, the transfected cells were cultured in the culture media containing 1 µg/ml puromycin (10 mM in DMSO, Cat# J61278/ Alfa Aesar. ThermoFisher Korea, Seoul, Korea) for 9 days. Regular media change was performed in every 3 days with fresh puromycin of indicating concentration during the whole selection period. The selected cells were trypsinized and diluted to 5 cells/ml and seeded to 4x 96 well cell culture plates (100 µl/well), and cultured with the cell culture media containing 1 µg/ml puromycin for 11 days. 18 wells that contained only GFP-positive cells were selected for expansion, and cultured with the cell culture media containing 0.1-0.2 µg/ml puromycin for 14 days. 10 clones were discarded during the expansion due to emerging of non-GFP cells, and 8 clones were validated. The selected clone (1E2) was cultured with the cell culture media containing 0.5 µg/ml puromycin for further experiments.
3 µmol of 1,728 compounds were purchased from Otava Chemicals MB (Vilniaus, Lithuania), dissolved into 300 µl DMSO (10 mM) and stored at -80°C. 4x10^4 HEK293T-TK252-1E2 cells were seeded with 100 µl of the cell culture media into 96 white well cell culture plates (Cat# 30196. SPL, Seoul, Korea), 48 hrs prior to compound treatment. For 10 µM compound treatment, 10 mM compound stock was diluted to 50 µM with the cell culture media, and 25 µl of the diluted compound was added to the designated wells of the 96 well plates. For dose-response experiments, the amount of compounds for dilution was adjusted to fit the volume indicated above. After 48 hrs compound treatment, the cells were washed once with OptiMEM and live cell luciferase activity, fluorescent intensity and fluorescence area scan was measured.
1,728 compounds were treated at 10 µM to HEK293T-TK252-1E2 cells and incubated for 48 hrs. […] Single wash step with culture media without FBS was included before measurement to discard dead cells and to remove FBS that affects luciferase assay. […] Fluorescent intensity was taken for normalization, which is expected to be proportion to the cell number at the measuring point. L/F value which is luciferase activity normalized with fluorescent intensity (L/F = Luciferase activity/ Fluorescent intensity) was calculated for all measurements and compared to L/F value of DMSO controls to calculated the size of inhibitory effect. […] Fluorescence area scan (FA) performed right after luciferase activity and fluorescent intensity measurement, to validate total remaining fluorescent cells in a well as a proxy to the cellular toxicity. FA value was in proportion to WST assay results (data not shown), and average CV of triplicates of all measurements was 0.04.
61 compounds were further tested for dose-response profile, based on inhibitory effect that was measured by L/F value (<60%) and FA-based cell viability (>90%) at 10 µM compared to DMSO control. 10 compounds were considered as hit compounds through three times of reproduction.

Row | Structure (SMILES) | IC50 [µM]
3 | Cc1ccc(C(=O)N2CCc3[nH]c4ccc(-c5cccc(C#N)c5)cc4c3C2)cn1 [Formula 57, 3-(2-(6-Methylnicotinoyl)-2,3,4,5-tetrahydro-1H-pyrido[4,3-b]indol-8-yl)benzonitrile] | 3 to 12
4 | Cc1ccccc1-c1ccc2[nH]c3c(c2c1)CN(C(=O)c1ccccc1)CC3 [Formula 23, Phenyl(8-(o-tolyl)-1,3,4,5-tetrahydro-2H-pyrido[4,3-b]indol-2-yl)methanone] | 3 to 12
5 | COc1ccc(C(=O)N2CCc3[nH]c4ccc(-c5ccc(C)cc5)cc4c3C2)cc1 [Formula 39, (4-methoxyphenyl)(8-(p-tolyl)-1,3,4,5-tetrahydro-2H-pyrido[4,3-b]indol-2-yl)methanone] | 3 to 12
6 | Cc1ccc(C(=O)N2CCc3[nH]c4ccc(-c5ccccc5)cc4c3C2)cc1 [Formula 14, (8-phenyl-1,3,4,5-tetrahydro-2H-pyrido[4,3-b]indol-2-yl)(p-tolyl)methanone] | < 3
7 | Cc1ccc(-c2ccc3[nH]c4c(c3c2)CN(C(=O)Nc2ccccc2)CC4)cc1 [Formula 75, N-phenyl-8-(p-tolyl)-1,3,4,5-tetrahydro-2H-pyrido[4,3-b]indole-2-carboxamide] | 12 to 25
8 | Cn1ccc2c(C(=O)N3CCc4[nH]c5ccc(-c6ccccc6)cc5c4C3)cccc21 [Formula 10, (1-methyl-1H-indol-4-yl)(8-phenyl-1,3,4,5-tetrahydro-2H-pyrido[4,3-b]indol-2-yl)methanone] | 3 to 12
9 | COc1cccc(C(=O)N2CCc3[nH]c4ccc(-c5ccccc5)cc4c3C2)c1 [Formula 18, (3-methoxyphenyl)(8-phenyl-1,3,4,5-tetrahydro-2H-pyrido[4,3-b]indol-2-yl)methanone] | 3 to 12
10 | CCn1c2c(c3cc(-c4ccc(C)cc4)ccc31)CN(C(=O)c1ccccc1)CC2 [Formula 45, (5-ethyl-8-(p-tolyl)-1,3,4,5-tetrahydro-2H-pyrido[4,3-b]indol-2-yl)(phenyl)methanone] | 3 to 12
11 | N#Cc1ccc(-c2ccc3[nH]c4c(c3c2)CN(C(=O)c2cccnc2)CC4)cc1 [Formula 51] | 3 to 12
